US10960017B2, “Sorafenib or regorafenib troxacitabine phosphoramidate prodrug combination therapy for liver cancer” (priority 2016, dated 2021)
Read-outs that look alike come from different tables or passages of the source.

Assays:
[1] = system: human hepatocellular carcinoma cell line Hep3B; assay: Combinatorial evaluation in cell culture (Hep3B proliferation, Cell Counting Kit-8, MacSynergy II); format: cell-based; conditions: combination with sorafenib, Hep3B cells, 6 days incubation; for anti-proliferative interaction with sorafenib (MacSynergy II classification): 95% confidence; for log volume at 95% confidence (synergy volume calculated by MacSynergy II): log volumes >9 indicate strong synergy
Method: General Procedure for Combinatorial Evaluation in Cell Culture
For analysis of the human hepatocellular carcinoma cell line Hep3B, from DSMZ (ACC 93), was used. Hep3B cells were cultured as epithelial-like cells in monolayers in 90% MEM (with Earle's salts)+10% h.i. FBS+2 mM L-glutamine+50 u/ml Penicillin/0.05 mg/ml Streptomycin as culture medium. Confluent cultures were split 1:4 to 1:10 every 3-5 days using trypsin/EDTA, and re-seeded at 0.5−1×10^6 cells/80 cm^2.
Cell culture flask is washed 2 times with 5 ml PBS and PBS discarded. Add 1.5 ml of trypsin and put the flask into the incubator for 3-4 minutes. Shake the flask and add 10 ml of DMEM, 10% FCS, 50 μ/ml Penicillin/0.05 mg/ml Streptomycin without phenol red. The cells were counted using the Scepter cell counter, Hep3B cells were diluted to 20×10^3 cells/ml in complete cell medium without phenol red. 100 μl cell suspension/well was seeded in 96-well cell assay plates. Two replicate plates for each combination.
Test compounds were tested at nine concentrations, either 5 μM to 0.00076 μM or 10 μM to 0.0015 μM, in a 1:3 dilution series. Sorafenib was tested at seven concentrations, 20 μM to […], in a 1:2 dilution series. The four dilution plates were prepared with the Echo instrument.
The compound dilutions were 2 times the desired final concentrations. The volume in the dilution plates in each well are 125 μl of medium with compounds.
100 μl from the dilution plate with compounds in the different concentrations were transferred to the corresponding well of the cell assay plate with 100 μl, (200 μl/well in total volume). Incubate the plates for 6 days, at 37° C., 5% CO2.
10 μl of CCK Kit-8 was added to each well using a multi-channel pipette (submerging the tips below the surface in each well). Plates were incubated for 4 hours at 37° C., 5% CO2.
The plate was read in the spectrophotometer at a wavelength of 450 nm, with a reference filter of 650 nm. Average absorbance was >1 to <3 for the vehicle treated cell controls.
Raw data from the two plates of each combination were entered into the Mac Synergy II shareware where the combined effect was calculated and plotted in a 3D dose-response surface graph. Theoretical additive interactions are calculated from the dose response curves for each drug individually. Calculated additive surface is subtracted from experimentally determined dose-response surfaces to reveal regions of non-additive activity. The final results are given as synergy or antagonism volumes (μM^2%) according to guide lines given in the manual for MacSynergy II:
Synergy volumes: • 1. Values of synergy or antagonism under 25 μM^2% (log volumes <2) at 95% confidence should be regarded as insignificant and are probably not important. • 2. Values between 25 μM^2% and 50 μM^2% (log volumes >2 and <5) should be considered a minor but significant amount of synergy. • 3. Values between 50 μM^2% and 100 μM^2% (log volumes >5 and <9) indicate moderate synergy or antagonism. This interaction may be important in vivo. • 4. Values over 100 μM^2% (log volumes >9) indicate strong synergy and are probably important in vivo.

[2] = cited from earlier work

## CC[C@@H](C)OC(=O)[C@H](C)NP(=O)(OC[C@H]1OC[C@@H](n2cc(F)c(N)nc2=O)O1)Oc1ccccc1 (single isomer, unassigned) [Example 2]
[1]
  anti-proliferative interaction with sorafenib (MacSynergy II classification): strong anti-proliferative synergy
  log volume at 95% confidence (synergy volume calculated by MacSynergy II): 11

## CNC(=O)c1cc(Oc2ccc(NC(=O)Nc3ccc(Cl)c(C(F)(F)F)c3)cc2)ccn1.Cc1ccc(S(=O)(=O)O)cc1 [Sorafenib tosylate, 4-(4-{3-[4-Chloro-3(trifluoromethyl)phenyl]ureido}phenoxy) N-methylpyridine-2-carboxamide 4-methylbenzenesulfonate]
[2]; PEG 400
  solubility: soluble
[2]; aqueous media
  solubility: practically insoluble
[2]; ethanol
  solubility: slightly soluble

## CCC[C@H](C)OC(=O)[C@H](C)NP(=O)(OC[C@H]1OC[C@@H](n2ccc(N)nc2=O)O1)Oc1ccccc1 (single isomer, unassigned) [Example 1]
[1]
  anti-proliferative interaction with sorafenib (MacSynergy II classification): strong anti-proliferative synergy
  log volume at 95% confidence (synergy volume calculated by MacSynergy II): 76

## CCC[C@H](C)OC(=O)[C@H](C)NP(=O)(OC[C@H]1OC[C@@H](n2ccc(N)nc2=O)O1)Oc1ccc(Br)cc1 (single isomer, unassigned) [Example 4]
[1]
  anti-proliferative interaction with sorafenib (MacSynergy II classification): strong anti-proliferative synergy
  log volume at 95% confidence (synergy volume calculated by MacSynergy II): 40

## CCCC(CCC)COC(=O)[C@H](C)NP(=O)(OC[C@H]1OC[C@@H](n2ccc(N)nc2=O)O1)Oc1ccccc1 (single isomer, unassigned) [Example 3]
[1]
  anti-proliferative interaction with sorafenib (MacSynergy II classification): strong anti-proliferative synergy
  log volume at 95% confidence (synergy volume calculated by MacSynergy II): 32

## CC[C@@H](C)OC(=O)[C@@H](NP(=O)(OC[C@H]1OC[C@@H](n2ccc(N)nc2=O)O1)Oc1ccccc1)C(C)C (single isomer, unassigned) [Example 5]
[1]
  anti-proliferative interaction with sorafenib (MacSynergy II classification): strong anti-proliferative synergy
  log volume at 95% confidence (synergy volume calculated by MacSynergy II): 46

## CNC(=O)c1cc(Oc2ccc(NC(=O)Nc3ccc(Cl)c(C(F)(F)F)c3)c(F)c2)ccn1 [Regorafenib monohydrate, 4-[4-({[4-chloro-3-(trifluoromethyl)phenyl]carbamoyl}amino)-3-fluorophenoxy]-N-methylpyridine-2-carboxamide monohydrate]
[2]; acetone
  solubility: sparingly soluble
[2]; acetonitrile
  solubility: slightly soluble
[2]; aqueous media
  solubility: practically insoluble
[2]; ethanol
  solubility: slightly soluble
[2]; ethyl acetate
  solubility: slightly soluble
[2]; methanol
  solubility: slightly soluble
